Test [1] deals with 4-hydroxy-tetrahydrodipicolinate synthase (Mycobacterium tuberculosis, UniProt P9WP25). The experiment in a line: Reversible inhibition of recombinant N-terminal His-6 tagged Mycobacterium tuberculosis dihydrodipicolinate synthase using (S)-ASA as substrate preincubated for 5 mins followed by substrate addition measured over 10 mins by spectrophotometric analysis.
Test [2] is described as follows: Reversible competitive inhibition of Bacillus subtilis PCI-219 dihydrodipicolinate synthase using DL-ASA as substrate after 10 mins by double reciprocal plot analysis.
The nature of test [3]: Reversible competitive inhibition of Bacillus subtilis PCI-219 dihydrodipicolinate synthase using pyruvate as substrate after 10 mins by double reciprocal plot analysis.
In test [4] the target is T1, 4-hydroxy-tetrahydrodipicolinate synthase (Escherichia coli K-12) (UniProt P0A6L2).
T1 sequence (whole entry): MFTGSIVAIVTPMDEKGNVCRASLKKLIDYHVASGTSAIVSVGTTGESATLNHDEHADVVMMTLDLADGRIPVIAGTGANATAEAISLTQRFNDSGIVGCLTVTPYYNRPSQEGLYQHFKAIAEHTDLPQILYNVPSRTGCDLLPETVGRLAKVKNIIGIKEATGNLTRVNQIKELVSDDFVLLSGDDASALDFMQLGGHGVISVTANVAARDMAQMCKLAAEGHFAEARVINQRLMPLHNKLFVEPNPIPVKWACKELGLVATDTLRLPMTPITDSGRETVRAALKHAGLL
As to the kind of experiment: Competitive inhibition of Escherichia coli dihydrodipicolinate synthase using DL-ASA as substrate.

Test [5] concerns the target T1, 4-hydroxy-tetrahydrodipicolinate synthase (Escherichia coli K-12). As to the kind of experiment: Inhibition of Escherichia coli dihydrodipicolinate synthase at 4.6 mM relative to control.
For test [6] the target is unchanged. The experiment in a line: Uncompetitive inhibition of Escherichia coli dihydrodipicolinate synthase using pyruvate as substrate.
Test [7] shares this target. The experiment in a line: Uncompetitive inhibition of Escherichia coli dihydrodipicolinate synthase using DL-ASA as substrate.
Test [8] concerns the target T2, 4-hydroxy-tetrahydrodipicolinate synthase (Escherichia coli K-12, UniProt P0A6L2).
T2 sequence (P0A6L2 whole entry): T1 sequence (whole entry)
As to the kind of experiment: (§1) Inhibition of Escherichia coli dihydrodipicolinate synthase.

Test [9] deals with T2, 4-hydroxy-tetrahydrodipicolinate synthase. The experiment in a line: Reversible competitive inhibition of Escherichia coli dihydrodipicolinate synthase.
The target of test [10] is T1, 4-hydroxy-tetrahydrodipicolinate synthase (Escherichia coli K-12). As to the kind of experiment: Inhibition of Escherichia coli dihydrodipicolinate synthase at 1.2 mM relative to control.
The target is the same in test [11]. As to the kind of experiment: Competitive inhibition of Escherichia coli dihydrodipicolinate synthase using pyruvate as substrate.
The target is the same in test [12]. The test is described as §1.
A short description of test [13]: Inhibition of Campylobacter jejuni dihydrodipicolinate synthase.
Test [14] addresses T1, 4-hydroxy-tetrahydrodipicolinate synthase (Escherichia coli K-12). As to the kind of experiment: Inhibition of Escherichia coli dihydrodipicolinate synthase at 1 mM relative to control.
The target in test [15] is T2, 4-hydroxy-tetrahydrodipicolinate synthase. The experiment in a line: Reversible inhibition of Escherichia coli dihydrodipicolinate synthase using pyruvate as substrate.
Test [16] has the same target. As to the kind of experiment: Reversible inhibition of Escherichia coli dihydrodipicolinate synthase using ASA as substrate.
Test [17] is described as follows: Reversible inhibition of Campylobacter jejuni dihydrodipicolinate synthase.
The target in test [18] is T1, 4-hydroxy-tetrahydrodipicolinate synthase (Escherichia coli K-12). The experiment in a line: Competitive inhibition of Escherichia coli dihydrodipicolinate synthase using ASA as substrate.
Test [19] has as its target T2, 4-hydroxy-tetrahydrodipicolinate synthase. As to the kind of experiment: Inhibition of Escherichia coli dihydrodipicolinate synthase assessed as inhibitory dissociation constant using ASA as substrate.
Test [20] concerns the target 4-hydroxy-tetrahydrodipicolinate synthase (Mycobacterium tuberculosis) (UniProt P9WP25). As to the kind of experiment: Inhibition of recombinant N-terminal His-6 tagged Mycobacterium tuberculosis dihydrodipicolinate synthase using (S)-ASA as substrate preincubated for 5 mins followed by substrate addition measured over 10 mins by spectrophotometric analysis relative to control.

pIC50, pKi: −log10 of the molar value.

Sequence of 4-hydroxy-tetrahydrodipicolinate synthase (Mycobacterium tuberculosis, UniProt P9WP25) (P9WP25 whole entry): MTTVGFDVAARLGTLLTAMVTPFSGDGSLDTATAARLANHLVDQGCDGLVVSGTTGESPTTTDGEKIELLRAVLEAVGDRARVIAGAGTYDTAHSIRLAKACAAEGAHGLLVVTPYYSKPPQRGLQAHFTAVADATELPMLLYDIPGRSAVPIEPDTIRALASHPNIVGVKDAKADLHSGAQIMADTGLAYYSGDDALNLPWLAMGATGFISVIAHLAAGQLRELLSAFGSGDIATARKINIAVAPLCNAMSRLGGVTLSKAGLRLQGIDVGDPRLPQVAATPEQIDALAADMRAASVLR
Sequence of 4-hydroxy-tetrahydrodipicolinate synthase (Mycobacterium tuberculosis) (P9WP25 whole entry): as above

For `O=C(O)CCCCC(=O)C(=O)O`, the pKi in test [1] is 4.48; in [2] it was 3.66; in test [3], 3.80.

As to `NCCSC[C@H](N)C(=O)O`, the Kis in test [4] came out at 2.4 mM. Also, the inhibition in [5] was found to be 50%. For the same compound, the Kii in [6] was found to be 1.9 mM; in test [7] it was 4.7 mM.

With `O=C(O)c1cccc(C(=O)O)n1` [DIPICOLINIC ACID], the pKi in test [8] is 1.96. In test [9], this compound had a pIC50 of 3.40. In addition, the inhibition in test [10] was 50%.

As to `O=CC(=O)O`, in test [11], the Kis worked out at 0.016 mM. This compound returned a Kii in test [7] of 0.028 mM.

For `CCC(=O)C(=O)O`, the results for the Kis in [11] and in [7] were 0.83 mM and 1.3 mM, respectively.

Regarding `N[C@@H](CC=O)C(=O)O`, in [12], the Kic was found to be 31 µM and the Kiuc worked out at 26 µM.

`c1cc(-c2nnn[nH]2)nc(-c2nnn[nH]2)c1` had a pIC50 in test [8] of 3.60.

In the case of `NCCCC[C@H](N)C(=O)O` [LYSINE], in test [4], the Kis was found to be 0.2 mM. The pIC50 is 4.19 in test [13] (read-out: IC50(app)) and 3.74 in [8]. Moreover, in test [14], the inhibition is 50%.

In turn, `O=C(O)c1cccc(C(=O)O)c1` [ISOPHTHALIC ACID] gave a pKi in test [8] of 2.25 to 2.27.

With `O=C(O)C1=CCCC(C(=O)O)C1` (stereo unspecified), in test [8], the pIC50 is 1.82.

In the case of `O=NN1CCC[C@H]1C(=O)O`, the pIC50 in test [8] is 2.12.

For `N[C@H]1CCOC1=O` [HOMOSERINE LACTONE], the values for the pKi in test [15] and in [16] were 1.82 to 2.10 and 1.66 to 1.92, respectively.

In test [8], `O=NN1CCCCC1C(=O)O` (racemic) showed a pIC50 of 2.46.

`O=C(O)C(=O)CF`: the Kis is 2 mM in [4] and 0.22 mM in test [11].

With `CC(=O)C(=O)O`, in test [12], the Kic is 54 µM and the Kiuc worked out at 12 µM.

`COC(=N)c1cccc(C(=N)OC)n1` gave a pIC50 in test [8] of 3.70.

Regarding `NCCCC[C@@](N)(CC[C@](N)(CCCCN)C(=O)O)C(=O)O`, the pIC50 in test [13] (read-out: IC50) is 6.52. This compound also showed a pKi in [17] of 6.85.

Regarding `COC(=O)c1cccc(C(=O)OC)n1`, the pIC50 in [8] is 3.15.

`O=CCCC(=O)O` yielded a Kis in [18] of 44 µM.

`N#Cc1cccc(C#N)n1` had a pIC50 in test [8] of 3.52.

`N[C@@H](CCC(=O)O)C(=O)O` [GLUTAMIC ACID]: in test [19], the pKi is 1.62 to 2.05.

The compound `CCCC(=O)C(=O)O` had a Kis in test [11] of 0.7 mM. In [7], this compound had a Kii of 1.6 mM.

In turn, `O=C(O)c1cccc(C(=O)O)[n+]1[O-]` gave a pIC50 in test [8] of 3.70.

As for `N[C@@H](CC(=O)O)C(=O)O` [ASPARTIC ACID], the values for the pKi in [19] and in test [16] were 1.41 to 1.68 and 3.85 to 4.05, respectively.

In the case of `O=C(O)CCCCC(O)C(=O)O` (stereo unspecified), the inhibition in test [20] worked out at 74%.

For the compound `O=C(O)C(=O)CBr` [BROMOPYRUVATE], the pKi in test [15] was 3.80.

Turning to `NC1CCCC1=O` (stereo unspecified), the pKi in test [19] is 1.62 to 1.92.

(Values after ChEMBL document CHEMBL4334427 (Medchemcomm, 2019).)
